The record followed here is patent US7514435B2, “Pyrrolotriazine kinase inhibitors” (Bristol-Myers Squibb Company, priority 2005, dated 2009).

The target in experiment [1] is T1, TrkB (Homo sapiens, UniProt Q16620).
T1 construct: The kinase domain of the human TrkB receptor (amino acids 526-838); His; purchased Invitrogen; host or cells: insect cells
The experiment in a line: TrkB tyrosine kinase inhibition, recombinant enzyme, polyGluTyr phosphorylation (33P-ATP filter assay). It counts as biochemical. Conditions: kinase domain of human TrkB (amino acids 526-838), His-fusion; 0.1 mg/ml PGT, 30 uM ATP, 1 hour at 30° C. How it is done:
The ability of compounds of the invention to inhibit tyrosine kinase activity of TrkB may be measured using a recombinant enzyme in an assay that measures the ability of compounds to inhibit the phosphorylation of the exogenous substrate, polyGluTyr (PGT, 4:1). The kinase domain of the human TrkB receptor (amino acids 526-838) is expressed in insect cells as a histidine (His)-fusion protein and is commercially available from Invitrogen™. The enzyme assay is performed in a 96-well plate. Test compounds are first dissolved in dimethylsulfoxide (DMSO) and then serially-diluted in a 96-well plate. The serially-diluted compounds are transferred to the 96-well assay plate so that the final concentration of DMSO in the enzyme assay is 1.64%. All assay components are diluted in phosphorylation buffer (20 mm MOPS, 10 mM MgCl2, 1 mM EDTA, 0.015% Brij-35, 0.1 mg/ml BSA, 0.0025% Beta-Mercaptoethanol). The recombinant enzyme is added to the assay plate containing test compound and the reaction is initiated with a substrate solution containing a final concentration of 0.1 mg/ml PGT, 30 uM ATP, and 0.008 mCi/ml ^33P-gammaATP (3000 Ci/mmol)(Perkin Elmer™) After a 1 hour incubation at 30° C., the reaction is terminated with 10% TCA and incubated at 4° C. for 1 hour. The reaction is filtered onto a Unifilter® GF/C™ filter plate that has been presoaked with 0.1 M NaPyrophosphate. Microscint-20 is then added to the dried filter plate and the captured ^33P-phosphorylated PGT is quantitated on a microscintillation plate counter (TopCount·NXT™).

In experiment [2] the target is T2, TrkA (Homo sapiens, UniProt P04629).
T2 construct: The kinase domain of the human TrkA receptor is expressed in Sf9 insect cells as a histidine (His)-fusion protein; His; made in house; host or cells: Sf9 insect cells (baculovirus)
The experiment in a line: TrkA tyrosine kinase inhibition, recombinant enzyme, polyGluTyr phosphorylation (33P-ATP filter assay). It counts as biochemical. Conditions: kinase domain of human TrkA, His-fusion; 0.1 mg/ml PGT, 30 uM ATP, 1 hour at 30° C. The source says:
The ability of compounds of the invention to inhibit tyrosine kinase activity of TrkA may be measured using a recombinant enzyme in an assay that measures the ability of compounds to inhibit the phosphorylation of the exogenous substrate, polyGluTyr (PGT, 4:1). The kinase domain of the human TrkA receptor is expressed in Sf9 insect cells as a histidine (His)-fusion protein using a baculovirus expression system. The protein is purified from the lysates of these cells using an Ni-NTA affinity column. After the recombinant enzyme is purified, it is activated by incubation with cold ATP. The enzyme assay is performed in a 96-well plate. Test compounds are first dissolved in dimethylsulfoxide (DMSO) and then serially-diluted in a 96-well plate. The serially-diluted compounds are transferred to the 96-well assay plate so that the final concentration of DMSO in the enzyme assay is 1.64%. All assay components are diluted in phosphorylation buffer (20 mm MOPS, 10 mM MgCl2, 1 mM EDTA, 0.015% Brij-35, 0.1 mg/ml BSA, 0.0025% Beta-Mercaptoethanol). The recombinant enzyme is added to the assay plate containing test compound and the reaction is initiated with a substrate solution containing a final concentration of 0.1 mg/ml PGT, 30 uM ATP, and 0.008 mCi/ml ^33P-gammaATP (3000 Ci/mmol). After a 1 hour incubation at 30° C., the reaction is terminated with 10% TCA and incubated at 4° C. for 1 hour. The reaction is filtered onto a Unifilter® GF/C™ filter plate that has been presoaked with 0.1 M NaPyrophosphate. Microscint-20 is then added to the dried filter plate and the captured ^33P-phosphorylated PGT is quantitated on a microscintillation plate counter (TopCount·NXT™).

Molecules are shown by their SMILES.

T2 sequence (P04629 510-781 limits assumed): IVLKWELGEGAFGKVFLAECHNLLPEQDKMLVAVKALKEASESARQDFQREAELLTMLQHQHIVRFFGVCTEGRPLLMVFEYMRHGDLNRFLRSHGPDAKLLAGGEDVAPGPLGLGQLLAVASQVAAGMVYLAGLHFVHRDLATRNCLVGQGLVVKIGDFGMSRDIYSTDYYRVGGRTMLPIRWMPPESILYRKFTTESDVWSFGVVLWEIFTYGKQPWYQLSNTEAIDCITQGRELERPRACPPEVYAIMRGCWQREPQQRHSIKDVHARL
T1 sequence (Q16620 510-822): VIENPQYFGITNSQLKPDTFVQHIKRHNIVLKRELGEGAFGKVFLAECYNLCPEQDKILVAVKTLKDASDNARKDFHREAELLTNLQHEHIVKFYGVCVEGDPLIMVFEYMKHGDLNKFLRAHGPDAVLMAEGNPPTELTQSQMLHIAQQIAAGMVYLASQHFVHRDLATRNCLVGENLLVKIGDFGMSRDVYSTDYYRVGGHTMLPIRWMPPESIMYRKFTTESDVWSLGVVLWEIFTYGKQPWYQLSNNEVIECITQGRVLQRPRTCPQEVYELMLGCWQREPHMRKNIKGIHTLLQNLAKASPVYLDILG

For the molecule `CC(C)c1cc(C(=O)c2cccc(NC(=O)Nc3ccc(Cl)cc3Cl)c2)c2c(N)ncnn12` [Example 1, 1-{3-[(4-amino-7-isopropylpyrrolo [2,1-f][1,2,4]triazin-5-yl)carbonyl]phenyl}-3-(2,4-dichlorophenyl)urea], in experiment [1], the concentration for half-maximal inhibition (IC50) (as a rule, the concentration that gives 50% inhibition) came to 1 nM. Take `CC(C)c1cc(C(=O)c2cccc(NC(=O)Nc3ccccc3)c2)c2c(N)ncnn12` [Example 9, 1-{3-[(4-amino-7-isopropyl-pyrrolo[2,1-f][1,2,4]triazin-5-yl)carbonyl]phenyl}-3-phenylurea]: the values for the IC50 in experiment [2] and in experiment [1] were 2 nM and less than 1 nM, respectively.

As for `CC(C)c1cc(C(=O)c2cccc(NC(=O)Nc3ccc(OCc4ccccc4)cc3)c2)c2c(N)ncnn12` [Example 33, 1-{3-[(4-amino-7-isopropyl-pyrrolo[2,1-f][1,2,4]triazin-5-yl)carbonyl]phenyl}-3-[4-(benzyloxy)phenyl]urea], the IC50 in experiment [2] is 2 nM; in experiment [1], 1 nM.

In the case of `CC(C)c1cc(C(=O)c2cccc(NC(=O)NCC3CCCCC3)c2)c2c(N)ncnn12` [Example 37, 1-{3-[(4-amino-7-isopropyl-pyrrolo[2,1-f][1,2,4]triazin-5-yl)carbonyl]phenyl}-3-(cyclohexylmethyl)urea], the IC50 in experiment [2] turned out to be 17 nM; in experiment [1] it was 36 nM. Taken in the same sequence, the figures for `CC(C)c1cc(C(=O)c2cccc(NC(=O)Nc3ccc4ccccc4c3)c2)c2c(N)ncnn12` [Example 46, 1-{3-[(4-amino-7-isopropyl-pyrrolo[2,1-f][1,2,4]triazin-5-yl)carbonyl]phenyl}-3-(2-naphthyl)urea] were less than 1 nM and 1 nM. In the same order, the values of `CC(C)c1cc(C(=O)c2cccc(NC(=O)NCCCc3ccccc3)c2)c2c(N)ncnn12` [Example 61, 1-{3-[(4-amino-7-isopropyl-pyrrolo[2,1-f][1,2,4]triazin-5-yl)carbonyl]phenyl}-3-(3-phenylpropyl)urea] are 21 nM and 8 nM. As to `CC(C)c1cc(C(=O)c2cccc(NC(=O)Nc3ccncc3)c2)c2c(N)ncnn12` [Example 63, 1-{3-[(4-amino-7-isopropyl-pyrrolo[2,1-f][1,2,4]triazin-5-yl)carbonyl]phenyl}-3-pyridin-4-ylurea], the half-inhibitory concentration (IC50) in experiment [2] is 9 nM; in experiment [1], 15 nM. Turning to `CN(C)CCCc1cc(C(=O)c2cccc(NC(=O)Nc3ccc(Cl)cc3Cl)c2)c2c(N)ncnn12` [Example 67, 1-[3-({4-amino-7-[3-(dimethylamino)propyl]Pyrrolo[2,1-f][1,2,4]triazin-5-yl}carbonyl)phenyl]-3-(2,4-dichlorophenyl)urea], the half-maximal inhibitory concentration (IC50) in experiment [2] is 3 nM; in experiment [1], 1 nM.
